We go through 5 compounds from publication PMC7026885, “Macrofilaricidal Benzimidazole–Benzoxaborole Hybrids as an Approach to the Treatment of River Blindness: Part 1. Amide Linked Analogs” (ACS Infectious Diseases, 2019).

The subject of series [1] is Onchocerca volvulus L3 larvae. The series can be described thus: Onchocerca volvulus L3 larval molting assay. The format is cell-based. As to conditions: O. volvulus, 1 μM. The procedure:
(§1) The first three analogs from the benzimidazole 5-carboxylic acid, namely 7a (from 6-aminobenzoxaborole), 8a (from 6-aminomethyl-3,3-dimethylbenzoxaborole), and 8b (from 3-aminomethylbenzoxaborole), were prepared and tested in an Onchocerca volvulus L3 larval molting assay[34],[35] and a mammalian G2/M arrest assay[36] to evaluate antifilarial activity and selectivity, respectively (Table 1). O. volvulus is the causative agent of river blindness, and the L3 molting assay is the only widely available and reproducible assay of this filariid, the target of novel macrofilaricidal drugs.[34],[35] Other animal models (e.g., Brugia in gerbils) recapitulate aspects of lymphatic filariasis and are also used as surrogate screens for O. volvulus infections. Of the three compounds tested, 8a emerged as the most attractive compound on the basis of potency and selectivity.
Plates were incubated at 37 °C in a 5% CO2 incubator for 6 days, then molting was assessed visually using an inverted microscope. Molting was determined in each well by counting the presence of fourth stage larvae (L4s) and empty casts of L3s.
The percent inhibition of molting was calculated based on the number of treated larvae that were able to molt in comparison to the number of control larvae that had successfully molted. IC50 values were calculated using GraphPad Prism v6.0
(http://www.graphpad.com). See Bullman et al., PLoS Negl. Trop.
Adult Brugia malayi transplantation in vivo model procedure.
Gerbils (Meriones unguiculatus) were infected by transplantation of 10 male and 10 female adult Brugia malayi into the peritoneal cavity. Gerbils were acclimated for 7 days prior to treatment. Animals were dosed based on their body weight prior to each dosing. Animals were administered their doses at the same time each day and receive standard rodent laboratory diet and water ad libitum. Gerbils were humanely euthanized at the conclusion of each study. Peritoneal counts of male and female adult B. malayi and visual condition of the peritoneum were recorded.
Brugia pahangi L3 injection in vivo model procedure 8.
Male gerbils (Meriones unguiculatus) approximately 6 weeks of age (50-60 g) were purchased from Charles Rivers (USA, Kingston K62 Gerbils) and infected by intraperitoneal injection with 200 Brugia pahangi third-stage larvae (L3) per animal
(Filariatech, Inc., Athens, GA). Gerbils were housed with no more than 5 animals per cage and maintained 9 months prior to treatment. All gerbils were dosed in accordance with their body weight determined prior to each dosing. Animals were […]

Series [2] relates to G2/M arrest (functional indicator of interaction with mammalian tubulin). Nature of the series: mammalian G2/M arrest assay. The format is cell-based. Conditions: Table 3; read-out: G2/M IC50. The procedure: as §1
Similarly, changing the point of attachment on the benzoxaborole core from 6- to 5- to afford 8d was also accompanied by increased potency in both the O. volvulus and G2/M arrest assays.

The nature of series [3]: MDR1-MDCK monolayer permeability assay. As to conditions: dog. In kind it is in vitro ADME. The protocol:
We characterized the in vitro ADME properties of 8a in preparation for evaluation of this compound in our primary in vivo model in gerbils. […] We were pleased to find that 8a was able to kill 100% of both male and female worms in the gerbil peritoneum when dosed subcutaneously at 100 mg/kg/day for 14 days as a suspension in a nonsolubilizing HEC/Tween vehicle. […] The subsequent assessment of the pharmacokinetics of 8a from these two dosing paradigms provided an interesting observation that we believe to be important in understanding the PK–PD requirements for achieving efficacy in this animal model. […] We had made the same observation in a positive control group using flubendazole at a subcutaneous dose of 10 mg/kg/day for 5 days in the nonsolubilizing HEC/Tween vehicle, namely, that plasma levels of flubendazole were maintained above the in vitro IC50 (4 nM) for over 42 days, consistent with data reported in the literature.[43] […] We next examined 8a in two additional in vivo models, the first where L3 B. pahangi larvae were injected into the peritoneum of gerbils and allowed to develop into adult worms[45] and a second where gerbils were naturally infected by the filarial nematode Litomosoides sigmodontis.[46],[47] In both of these models, 8a was administered subcutaneously at 100 mg/kg for 14 days or orally at 100 mg/kg for 28 days as a suspension. […] Additionally, when plasma obtained from treated animals at necropsy was analyzed for 8a, we observed an outcome similar to that observed in the adult implantation model, e.g., that measurable levels were present at this time point in the subcutaneous-dosed groups but not in the orally dosed groups, weeks after administration of the drug. In a final L. sigmodontis experiment with 8a, we dosed the compound subcutaneously at 300 mg/kg for 7 days as a suspension.

By inhibition is commonly meant the share of the control response that was lost under treatment. A low value points to little suppression. The Papp A→B is how fast a substance crosses the layer from the apical side. Low values mean slow passage, high ones fast passage. For `COC(=O)Nc1nc2ccc(C(=O)NCc3ccc4c(c3)B(O)OC4(C)C)cc2n1C` [8f], in series [1], the inhibition at 1 µM came out at 29%. For the same compound, in series [2], the IC50 is more than 100 µM. The Papp A→B in series [3] was determined as 1.8 ×10⁻⁶ cm/s.
Turning to `COC(=O)Nc1nc2c(F)c(C(=O)NCc3ccc4c(c3)B(O)OC4(C)C)ccc2[nH]1` [8i], in series [1], 1 µM produced 0% inhibition. In series [2], the IC50 was determined as 16 µM. The same compound returned an apical-to-basolateral permeability (Papp A→B) in series [3] of 2.35 ×10⁻⁶ cm/s.
`COC(=O)Nc1nc2cc(C(=O)NCc3ccc4c(c3)B(O)OC4(C)C)ccc2n1C` [8e] displayed an inhibition at 1 µM in series [1] of 24%. Also, the IC50 in series [2] was more than 100 µM. In series [3], this compound displayed an apical-to-basolateral permeability (Papp A→B) of 1.2 ×10⁻⁶ cm/s.
`COC(=O)Nc1nc2ccc(C(=O)N(CCN(C)C)Cc3ccc4c(c3)B(O)OC4(C)C)cc2[nH]1` [8h]: the IC50 in series [2] was 35 µM. In addition, the Papp A→B in series [3] stood at 0.14 ×10⁻⁶ cm/s.
With `COC(=O)Nc1nc2ccc(C(=O)N(C)Cc3ccc4c(c3)B(O)OC4(C)C)cc2[nH]1` [8g], the IC50 in series [2] came to 4.1 µM. In series [3], this compound yielded a Papp A→B of 0.6 ×10⁻⁶ cm/s.
